Test results: publication PMC9873984, “Membrane cholesterol regulates inhibition and substrate transport by the glycine transporter, GlyT2” (Life Science Alliance, 2023)
Numbering of substitutions follows the chain as printed.

Experiments:
[1] = target: T1, GlyT2 F515W mutant (Homo sapiens, UniProt Q9Y345, F515W); assay: Inhibitor concentration–responses on glycine transport currents, two-electrode voltage clamp; format: cell-based; set-up: expressed in transfected cells; host or cells: Xenopus laevis oocytes injected with mutant RNA (pOTV vector); details: for IC50: F515W GlyT2 in Xenopus laevis oocytes
T1 sequence (Q9Y345 1-797 F515W): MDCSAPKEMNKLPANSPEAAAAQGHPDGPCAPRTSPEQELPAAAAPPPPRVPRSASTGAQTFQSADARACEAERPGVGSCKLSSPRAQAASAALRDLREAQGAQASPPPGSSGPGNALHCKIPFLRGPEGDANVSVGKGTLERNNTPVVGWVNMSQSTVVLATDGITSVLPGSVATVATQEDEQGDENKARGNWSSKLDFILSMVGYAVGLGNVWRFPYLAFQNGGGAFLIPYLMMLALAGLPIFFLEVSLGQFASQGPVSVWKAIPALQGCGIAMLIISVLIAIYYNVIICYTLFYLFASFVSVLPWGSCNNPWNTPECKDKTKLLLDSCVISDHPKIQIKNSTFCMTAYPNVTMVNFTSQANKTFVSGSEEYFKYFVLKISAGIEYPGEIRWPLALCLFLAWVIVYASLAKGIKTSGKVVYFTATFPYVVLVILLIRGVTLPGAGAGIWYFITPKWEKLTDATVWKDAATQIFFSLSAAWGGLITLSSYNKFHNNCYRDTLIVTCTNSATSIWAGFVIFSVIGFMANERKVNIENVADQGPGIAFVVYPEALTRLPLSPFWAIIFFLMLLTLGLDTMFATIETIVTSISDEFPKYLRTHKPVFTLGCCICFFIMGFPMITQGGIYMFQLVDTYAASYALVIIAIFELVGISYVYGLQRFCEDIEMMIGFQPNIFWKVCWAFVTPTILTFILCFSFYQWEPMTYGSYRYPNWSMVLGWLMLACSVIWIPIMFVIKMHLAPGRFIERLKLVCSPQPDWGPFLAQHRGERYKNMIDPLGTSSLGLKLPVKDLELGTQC
Procedure: (§1) Because of the slowly reversible nature of the compounds tested, inhibitor concentration–responses were performed cumulatively. An EC50 concentration of glycine was applied until a stable transport current was reached. EC50 concentrations of glycine were used to produce reliable currents for each transporter, and as the inhibitors are non-competitive, application of varying glycine concentrations is unlikely to affect their activity. Increasing concentrations of inhibitors were co-applied with glycine with each concentration producing a distinct plateau before the subsequent concentration was applied. Inhibitor concentration–responses were limited to a maximum concentration of 3 µM to mitigate the risk of changes to the free drug concentration because of micelle formation. Currents after the plateau of each inhibitor concentration were normalized to the current produced by application of glycine alone and fit using the method of least squares: Y=Bottom+(Top−Bottom)/(1+10^[X−LogIC50]), where X is log [inhibitor], Y is current normalized to glycine in the absence of inhibitor, and Top and Bottom are the maximal and minimal plateaus, respectively. The method of least squares was constrained to have the bottom value >0 and the hill slope as −1, enabling the calculation of IC50 values and the extent of inhibition produced by the maximal concentration applied.
(§2) IC50 values are presented as the mean and 95% confidence interval, whereas inhibition values are presented as the mean ± SEM. Data sets are n ≥ 5 from two batches of oocytes.

[2] = target: T2, GlyT2 T512A mutant (Homo sapiens, UniProt Q9Y345, T512A); assay: as above; format: cell-based; set-up: expressed in transfected cells; host or cells: Xenopus laevis oocytes injected with mutant RNA (pOTV vector); details: for IC50: T512A GlyT2 in Xenopus laevis oocytes
T2 sequence (Q9Y345 1-797 T512A): T1 sequence (Q9Y345 1-797 F515W) with T512A, W515F
Procedure: as §1, §2

SMILES | Inhibition at 1 µM (column head 3 μM, footnote b) ([1]; F515W, 1 µM) | IC50 ([2]; 95% CI could not be fit) | Inhibition at 1 µM (column head 3 μM, footnote b) ([2]; T512A, 1 µM) | IC50 [1] | Inhibition at 3 μM ([1]; F515W) | IC50 [2] | Inhibition at 3 μM ([2]; T512A)
CCCCCCCC/C=C\CCCCCCCC(=O)O[C@H](CC(=O)[O-])C[N+](C)(C)C [Oleoyl-L-Carnitine, oleoyl-L-carnitine] | 57.6 ± 2.3^b % | 1700 nM | 44.1 ± 2.8^b % |  |  |  | 
CCCCCCCC/C=C\CCCCCCCC(=O)N[C@@H](Cc1c[nH]c2ccccc12)C(=O)O [Oleoyl-L-Tryptophan, oleoyl-L-tryptophan] |  |  |  | 128 nM | 82.0 ± 3.9% | 85 nM | 74.4 ± 4.5%
CCCCCCCC/C=C\CCCCCCCC(=O)N[C@@H](CCCCN)C(=O)O [Oleoyl-L-Lysine, oleoyl-L-lysine] |  |  |  | 689 nM | 85.3 ± 6.4% | 679 nM | 68.0 ± 1.7 %
CCCCCCCC/C=C\CCCCCCCC(=O)N[C@@H](CC(C)C)C(=O)O [Oleoyl-L-Leucine, oleoyl-L-leucine] |  |  |  | 400 nM | 86.7 ± 1.7 % | 549 nM | 50.7 ± 5.7 %
